According to patent US20120124703A1, “NOVEL COPRINUS COMATUS AND TREMELLA MESENTERICA MUSHROOM STRAINS, PRODUCTS AND EXTRACTS THEREOF AND COMPOSITIONS COMPRISING THEM” (PALMED TEVA LTD, priority 2009, published 2012):

Assays:
[1] = Antioxidant activity, β-carotene bleaching method; assay type: biochemical
Method: β-Carotene Bleaching Method. The antioxidant activity of C. comatus extracts was determined according to the β-carotene bleaching method. A reagent mixture containing 1 ml of (3-carotene (Sigma) solution (0.2 mg/ml in chloroform), 0.02 ml of linoleic acid (Sigma), and 0.2 ml of Tween 80 (Sigma) was evaporated to dryness under a nitrogen stream. Fifty milliliters of oxygenated distilled water and 0.2 ml of mushroom crude extracts (either ethanol or culture liquid) with different concentrations (2-8 mg/ml) were added. Pure methanol or water (0.2 ml) was used as the control, and the blank contained all the earlier chemicals except β-carotene. All these mixtures were then shaken to form a liposome solution and then incubated at 50° C. for 2 h. The absorbance of an aliquot (1 ml) of these liposome solutions at 470 nm was monitored by a spectrophotometer at time intervals of 20 min. Butylated hydroxyanisole (BHA) (Sigma) (2 mg/ml in methanol) was used as the standard. […] The bleaching rate (R) of 13-carotene was calculated according to
where: ln—natural log, a—absorbance at time 0, b—absorbance at time t, and t—incubation interval 20, 40, 60, 80, 100, or 120 min.
The antioxidant activity (AOA) was calculated, in terms of percent inhibition relative to the control, using Equation (2) […]

[2] = Scavenging activity on DPPH radicals; assay type: biochemical; conditions: standard BHA 1 mg/ml
Method: Scavenging Activity on 1,1-diphenyl-2-picrylhydrazyl. The scavenging activity of extracts from C. comatus was measured on 1,1-diphenyl-2-picrylhydrazyl (DPPH) radicals. An aliquot of 0.5 ml of 0.1 mM DPPH radical (Sigma) in methanol was added to a test tube with 1 mL of mushroom ethanol or water extract of different concentrations (0.5 to 9 mg/mL). Methanol or water was used instead of the mushroom sample as a control. The reaction mixture was vortex-mixed at room temperature and the absorbance was determined immediately after mixing by measuring at 520 nm with a spectrophotometer. Inhibition of free radicals by DPPH was calculated as follows: I (%)=(Ablank−Asample/Ablank)×100, where I is inhibition (%), Ablank is the absorbance of the control reaction (containing all reagents except the test compound), and Asample is the absorbance of the test compound. The extract concentration providing 50% inhibition (EC50) was calculated from the graph of scavenging activity of radical percentage against extract concentration. Butylated hydroxyanisole (BHA) in concentration of 1 mg/ml methanol was used as the standard. Each value is expressed as mean±standard deviation (n=3).
Free-radical scavenging is one of the known mechanisms by which antioxidants inhibit lipid oxidation. […] The decrease in absorbance is taken as a measure of the extent of radical-scavenging.

In the case of `COc1ccc(O)c(C(C)(C)C)c1` [BHA, Butylated hydroxyanisole], the “Antioxidant activity (%) of water extracts” value ([1]; extract concentration 2.0 mg/mL, BHA 2 mg/mL in methanol) is reported as 98.2%, the “Antioxidant activity (%) of ethanol extracts” value ([1]; extract concentration 2.0 mg/ml, BHA 2 mg/ml in methanol) is reported as 98.2% and the “Scavenging ability (% of inhibition)” value [2] is reported as 92.0%.
